# Measurements: paper PMC9032385, “A2A Adenosine Receptor Antagonists: Are Triazolotriazine and Purine Scaffolds Interchangeable?” (Molecules, 2022)
# What was measured:
# PD patients = tested on: PD patients; design: method as in PMID 26523919; details: two phase III trials, adjunct to levodopa in PD patients; cited from earlier work
# human recombinant A1AR = biological target: T1, human recombinant A1AR (Homo sapiens, UniProt P30542); assay: Radioligand binding at human A1AR ([3H]CCPA displacement, CHO cell membranes); details: displacement of [3H]CCPA, n = 3–5, means ± standard errors
# T1 construct: expressed in transfected cells; membrane preparation
# T1 sequence (P30542 1-326): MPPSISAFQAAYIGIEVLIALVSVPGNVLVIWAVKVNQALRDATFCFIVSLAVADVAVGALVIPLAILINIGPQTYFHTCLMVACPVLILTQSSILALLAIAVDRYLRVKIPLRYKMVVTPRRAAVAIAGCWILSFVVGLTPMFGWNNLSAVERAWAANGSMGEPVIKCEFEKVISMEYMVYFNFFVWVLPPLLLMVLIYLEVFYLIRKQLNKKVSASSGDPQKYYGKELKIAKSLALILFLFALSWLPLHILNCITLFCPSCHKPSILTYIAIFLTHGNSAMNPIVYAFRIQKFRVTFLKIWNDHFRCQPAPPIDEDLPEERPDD
# Method: (§1) The affinities of the newly synthesized compounds 7–13 and 17–21 were determined in binding studies at human recombinant A1, A2A, and A3 ARs, stably transfected in Chinese hamster ovary (CHO) cells, using [^3H]CCPA (2-chloro-N^6-cyclopentylAdo), [^3H]NECA (5′-N-ethylcarboxamidoAdo), and [^3H]HEMADO (2-hexynyl-N^6-methylAdo) as respective radioligands. Most of the compounds were also evaluated at A2BARs in a functional study using the GloSensor cAMP assay. The results are reported in Table 1 as Ki values in nM (± standard errors). In the case of A2BARs, Ki-values were calculated from IC50-values determined by the inhibition of NECA-stimulated adenylyl cyclase activity.
# (§2) Cell culture: The Chinese hamster ovary cells (CHO) stably transfected with the desired ARs were grown in DMEM/F12 medium containing 10% FBS (fetal bovine serum), 100 U/mL penicillin, 100 µg/mL streptomycin, 2.5 μg/mL amphotericin B, 1 mM sodium pyruvate, 0.1 mg/mL genetecina (G418), and incubated at 37 °C in a gaseous mixture of 5% CO2: […].
# (§3) Preparation of membranes: Cell membranes for binding assays were prepared mechanically detaching the cells from the petri and suspending them in a cold hypotonic buffer (5 mM Tris/HCl, 2 mM EDTA, pH 7.4). The cell suspension was homogenized (Ultra-Turrax, 2 × 15 s at maximum speed) and the homogenate centrifuged for 10 min (4 °C) to 1000× g. The supernatant was subsequently centrifuged for 30 min (4 °C) at 100,000× g and the pellet containing the membrane proteins was re-suspended in a specific buffer for each receptor subtype (A1: 50 mM Tris/HCl, pH 7.4; A2A: 50 mM Tris/HCl, 10 mM MgCl2, pH 7.4; A3: 50 mM Tris/HCl, 10 mM MgCl2, 1 mM EDTA, pH 8.25). The amount of the protein suspension was determined according to the […] using the BCA Protein Assay Kit (Pierce), frozen in liquid nitrogen, and stored at −80 °C.
# (§4) Binding assays: The dissociation constants of the radioligand (KD) were calculated through saturation assays, while the dissociation constants of the compounds under study (Ki) were determined by competition experiments. All binding data were calculated by nonlinear regression curves using the software GraphPad Prism 5 (GraphPad Software, San Diego, CA, USA). The increasing concentrations of the radioligand saturation binding ([^3H]-CCPA for the A1 receptor subtype, [^3H]-NECA for the A2A receptor subtype, and [^3H]-HEMADO for the A3 receptor) subtype were incubated in a total volume of 250 μL containing 0.2 U/mL of Ado deaminase (ADA) and 12 micrograms of membrane proteins in the specific buffer. In competition experiments for the A1 receptor subtype, each compound was added at increasing concentrations, to the well containing 1 nM of [^3H]-CCPA, to a final volume of 200 μL. The samples were left to incubate for 3 h at room temperature, filtered in a filter 96-well plate (UniFilter GF/C, Perkin-Elmer Life and Analytical Science, Boston, MA) using the FilterMate Cell Harvester (Perkin-Elmer), and washed 3 times with cold distilled water. After drying the filter plate at 40 °C for 30′, they 20 μL of scintillating liquid (Microscint-20, Perkin-Elmer) was added to each well, and then the radioactivity was quantized with the MicroBeta2 Plate Counter (Perkin-Elmer). The conditions for binding experiments at A2A and A3 receptor subtypes were essentially the same as for the A1AR using [^3H]-NECA (N-ethylcarboxyamideAdo) at a concentration of 10 nM and [^3H]-HEMADO (2-(1-hexyne)-N^6-methylAdo) at a concentration of 1 nM as radioligands, respectively. The samples were incubated with 12 micrograms of protein for 3 h at room temperature and filtered as described above.
# (§5) The non-specific binding was determined in the presence of 1 mM theophylline for the A1AR, or 100 µM R-PIA (N^6-(1-methyl-2-phenylethyl)Ado) for the A2A and A3 receptors.
# human recombinant A3AR = biological target: T2, human recombinant A3AR (Homo sapiens, UniProt P0DMS8); assay: Radioligand binding at human A3AR ([3H]HEMADO displacement, CHO cell membranes); details: displacement of [3H]HEMADO, n = 3–5, means ± standard errors
# T2 construct: expressed in transfected cells; membrane preparation
# T2 sequence (P0DMS8 1-318): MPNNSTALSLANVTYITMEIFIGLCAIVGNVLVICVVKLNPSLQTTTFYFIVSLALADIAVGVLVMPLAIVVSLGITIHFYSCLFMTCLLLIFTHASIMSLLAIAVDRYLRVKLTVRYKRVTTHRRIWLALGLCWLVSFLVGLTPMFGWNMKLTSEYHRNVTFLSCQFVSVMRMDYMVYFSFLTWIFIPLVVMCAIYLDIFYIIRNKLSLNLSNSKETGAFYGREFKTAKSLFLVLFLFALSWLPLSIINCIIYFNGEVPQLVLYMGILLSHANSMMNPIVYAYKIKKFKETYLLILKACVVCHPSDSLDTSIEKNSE
# Method: as §1, §2, §3, §4, §5
# human recombinant A2AAR = biological target: T3, human recombinant A2AAR (Homo sapiens, UniProt P29274); assay: Radioligand binding at human A2AAR ([3H]NECA displacement, CHO cell membranes); details: displacement of [3H]NECA, CHO membranes, n = 3–5, means ± standard errors
# T3 construct: expressed in transfected cells; membrane preparation
# Method: Most of the compounds were also evaluated at A2BARs in a functional study using the GloSensor cAMP assay. […] In the case of A2BARs, Ki-values were calculated from IC50-values determined by the inhibition of NECA-stimulated adenylyl cyclase activity.
# Preparation of membranes: Cell membranes for binding assays were prepared mechanically detaching the cells from the petri and suspending them in a cold hypotonic buffer (5 mM Tris/HCl, 2 mM EDTA, pH 7.4). The cell suspension was homogenized (Ultra-Turrax, 2 × 15 s at maximum speed) and the homogenate centrifuged for 10 min (4 °C) to 1000× g. […] The amount of the protein suspension was determined according to the […] using the BCA Protein Assay Kit (Pierce), frozen in liquid nitrogen, and stored at −80 °C.
# as §4, §5
# A2BAR = biological target: T4, A2BAR (Homo sapiens, UniProt P29275); assay: Functional study at A2BAR (GloSensor cAMP assay; inhibition of NECA-stimulated adenylyl cyclase activity); format: cell-based; details: Ki calculated from IC50 of inhibition of NECA-stimulated adenylyl cyclase activity, CHO cells
# T4 construct: expressed in transfected cells
# T4 sequence (P29275 1-332): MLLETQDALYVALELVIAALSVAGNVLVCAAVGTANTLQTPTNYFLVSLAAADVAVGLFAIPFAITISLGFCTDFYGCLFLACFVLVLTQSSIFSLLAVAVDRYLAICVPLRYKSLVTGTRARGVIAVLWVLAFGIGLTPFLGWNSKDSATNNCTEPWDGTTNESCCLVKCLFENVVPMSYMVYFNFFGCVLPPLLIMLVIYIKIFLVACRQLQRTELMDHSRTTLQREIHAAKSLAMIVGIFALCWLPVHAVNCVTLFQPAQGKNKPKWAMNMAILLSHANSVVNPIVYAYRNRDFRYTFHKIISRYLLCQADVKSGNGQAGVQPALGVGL
# Method: as §1
# T3 sequence (P29274 whole entry): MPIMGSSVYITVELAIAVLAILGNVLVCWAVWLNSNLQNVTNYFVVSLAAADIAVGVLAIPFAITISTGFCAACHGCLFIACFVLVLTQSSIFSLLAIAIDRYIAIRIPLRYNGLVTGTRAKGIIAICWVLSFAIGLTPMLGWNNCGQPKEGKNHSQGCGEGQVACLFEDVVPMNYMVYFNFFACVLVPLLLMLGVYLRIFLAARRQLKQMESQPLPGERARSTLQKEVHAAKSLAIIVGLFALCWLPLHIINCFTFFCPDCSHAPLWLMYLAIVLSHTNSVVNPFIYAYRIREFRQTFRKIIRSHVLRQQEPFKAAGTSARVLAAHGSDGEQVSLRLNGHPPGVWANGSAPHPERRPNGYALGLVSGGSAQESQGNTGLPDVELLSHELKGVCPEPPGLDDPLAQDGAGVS
structure (smiles),measurement,setting,value
COCCOc1ccc(N2CCN(CCn3ncc4c3nc(N)n3nc(-c5ccco5)nc43)CC2)cc1 [Preladenant],efficacy versus placebo,PD patients,efficacy was not significantly higher than the placebo
"CCOc1nc2nc(SC)nc(N)n2n1 [compound 18, 2-Ethoxy-5-(methylthio)-[1,2,4]triazolo[1,5-a][1,3,5]triazin-7-amine]",Ki,human recombinant A1AR,4.57 µM
same,Ki,human recombinant A3AR,9.72 µM
same,Ki,human recombinant A2AAR,0.583 µM
same,melting point,,220 °C (dec.)
CCn1c(O)nc2c(N)nc(NCCc3ccc(OC)cc3)nc21 [compound 10],Ki,human recombinant A1AR,1.39 µM
same,Ki,human recombinant A3AR,0.777 µM
same,Ki,human recombinant A2AAR,> 30 µM
same,Ki,A2BAR,> 30 µM
"CCOc1nc(N)n2nc(OCC)nc2n1 [compound 19, 2,5-diethoxy-[1,2,4]triazolo[1,5-a][1,3,5]triazin-7-amine]",Ki,human recombinant A1AR,6.36 µM
same,Ki,human recombinant A3AR,4.79 µM
same,Ki,human recombinant A2AAR,1.06 µM
"CSc1nc(N)n2nc(S(C)(=O)=O)nc2n1 [compound 17, 2-(Methylsulfonyl)-5-(methylthio)-[1,2,4]triazolo [1,5-a][1,3,5]triazin-7-amine]",Ki,human recombinant A1AR,5.72 µM
same,Ki,human recombinant A3AR,14.7 µM
same,Ki,human recombinant A2AAR,3.24 µM
"CCn1cnc2c(N)nc(NCCc3ccc(OC)cc3)nc21 [compound 7, 9-Ethyl-N^2-(4-methoxyphenethyl)-9H-purine-2,6-diamine]",Ki,human recombinant A1AR,5.84 µM
same,Ki,human recombinant A3AR,23.6 µM
same,Ki,human recombinant A2AAR,1.46 µM
same,Ki,A2BAR,> 30 µM
"CCn1c(Br)nc2c(N)nc(NCCc3ccc(O)cc3)nc21 [compound 9, 4-(2-((6-Amino-9-ethyl-8-bromo-9H-purin-2-yl)amino)ethyl)phenol]",Ki,human recombinant A1AR,0.411 µM
same,Ki,human recombinant A3AR,3.81 µM
same,Ki,human recombinant A2AAR,0.044 µM
same,Ki,A2BAR,0.393 µM
CCn1c(O)nc2c(N)nc(NCCc3ccc(O)cc3)nc21 [compound 11],Ki,human recombinant A1AR,7.05 µM
same,Ki,human recombinant A3AR,> 30 µM
same,Ki,human recombinant A2AAR,> 30 µM
same,Ki,A2BAR,> 30 µM
"CCn1c(Br)nc2c(N)nc(NCCc3ccc(OC)cc3)nc21 [compound 8, 8-Bromo-9-ethyl-N^2-(4-methoxyphenethyl)-9H-purine-2,6-diamine]",Ki,human recombinant A1AR,0.545 µM
same,Ki,human recombinant A3AR,4.03 µM
same,Ki,human recombinant A2AAR,0.034 µM
same,Ki,A2BAR,4.26 µM
"CCn1c(-c2ccco2)nc2c(N)nc(NCCc3ccc(OC)cc3)nc21 [compound 12, 9-ethyl-8-(furan-2-yl)-N^2-(4-methoxyphenethyl)-9H-purine-2,6-diamine]",Ki,human recombinant A1AR,0.0026 µM
same,Ki,human recombinant A3AR,0.016 µM
same,Ki,human recombinant A2AAR,0.001 µM
same,Ki,A2BAR,> 30 µM
